For assay [1], the system named is LPS-primed d-THP-1 cells. The assay can be described thus: Nigericin-induced pyroptotic LDH release. Conditions: rebastinib 0.01-1 μM, 30 min, nigericin 5 μM 30 min. The class given is cell-based, Human. Here is the method:
(§1) Pyroptosis is a form of programmed cell death. In this process, immune cells recognize foreign danger signals within themselves, release pro-inflammatory cytokines, swell, burst, and die. In this example, the effects of the present compound on nigericin-induced pyroptotic cell death and LDH release were investigated, in which the pyroptosis phenomena was observed using Field Emission Scanning Electron Microscope, and LDH level was determined by enzymatic assay.
Background: Release of lactate dehydrogenase indicates damage to the cell membrane.

The subject of assay [2] is LPS-primed d-THP-1 cells. As to the kind of experiment: Imiquimod-induced IL-1β secretion in LPS-primed d-THP-1 cells (ELISA). Conditions: rebastinib 0.003-1 μM, 30 min pre-incubation, IMQ 100 μM 2 hr. The class given is cell-based, Human. Here is the method:
(§2) Human monocytic cell line THP-1 was purchased from American Type Culture Collection (ATCC) and maintained in RPMI-1640 Medium supplemented with 10% fetal bovine serum (FBS), 1% antibiotic-antimycotic solution, 0.1% (3-mercaptoethanol ((3-ME), and phenol red indicator in an incubator at 37° C. with 5% CO2. The medium was changed every 2-3 days.
(§3) To induce differentiation, THP-1 cells (cell density was about 5×10^5/mL) was cultivated in a serum-free medium containing 100 nM of phorbol 12-myristate 13-acetate (PMA) for about 4 hr. Then, the PMA-containing medium was replaced with a fresh RPMI-1640 medium, and the cultivation was continued for another 2 days to allow the THP-1 cells to differentiate into macrophage-like cells, hereafter termed “d-THP-1 cells.”
(§4) d-THP1 cells were first treated with 100 ng/mL of lipopolysaccharide (LPS) for 3 hr, then LPS-containing medium was replaced by a fresh medium. […]
(§5) The level of IL-1β and IL-18 was independently determined by ELISA assay kit (R&D system) in accordance with the manufacturer's protocol. The level of […] and IL-18 was determined from the 450 and 540 nm absorbance measured by Multiskan GO multiplate reader. […]
(In general: ELISA stands for enzyme-linked immunosorbent assay.)

Assay [3] relates to LPS/D-GalN-induced acute liver failure in mice. As to the kind of experiment: Animal model of LPS/D-GalN-induced acute liver failure. Conditions: for acute liver failure: liver bleeding and inflammation (gross liver morphology): rebastinib 5 or 10 mg/kg i.v. 1 hr before LPS (40 μg/kg)/D-GalN (400 mg/kg) i.p. The class given is in vivo, mice (C57BL/6). The procedure: (§6) C57BL/6 mice (7-10-week-old, each weighted about 20-25 g) were maintained in micro-isolator units on a standard laboratory diet. Animals were housed under humidity- and temperature-controlled conditions and the light/dark cycle was set at 12-hr intervals, maintained under specified and opportunistic pathogen-free conditions. All animal studies were conducted under protocol approved by the Animal Care and Use Committee of Chang Gung University (Taipei, Taiwan).
Mice were randomly divided into 4 groups. The test compound rebastinib (5 or 10 mg/Kg) or a control solvent (80% saline, 10% ethanol, 10% Tween-20) was injected through the tail vein of each mice. The mice were allowed to rest for 1 hr, then LPS ([…])/D-GalN (400 mg/Kg) was injected through abdominal space for 5 hr to induce acute liver failure. Blood samples and tissue samples were respectively collected. Blood samples were analyzed for their respective levels of LDH, AST, ALT, BUN, and CRE. The livers were fixed in 10% formalin for tissue section. The liver sections were stained with hematoxylin and eosin (H&E).
In this example, animal model of acute liver failure was used to investigate the effect of the present compound on acute liver failure. Briefly, animals were first subjected to LPS/D-GalN treatment (LPS: 40 […]) to create acute liver failure, then blood and tissue samples with or without treatment of the present compound were taken, which were then subjected to biochemistry and microscopy analysis.

In assay [4] the test system is LPS-primed d-THP-1 cells. As to the kind of experiment: Nigericin-induced IL-1β secretion in LPS-primed d-THP-1 cells (ELISA). The assay is classed as cell-based, Human. Conditions: rebastinib 0.01-1 μM, 30 min pre-incubation, nigericin 5 μM 30 min, IL-1β in supernatant by ELISA. Here is the method:
as §2, §3, §4, §5

Assay [5] relates to LPS-primed d-THP-1 cells. As to the kind of experiment: Nigericin-induced pyroptotic cell death observed by field emission scanning electron microscopy. The class given is cell-based, Human. The settings on record: rebastinib 1 μM or glibenclamide 50 μM, 30 min, nigericin 5 μM 30 min, SEM images. Here is the method: d-THP-1 cells (treated with LPS, the tested compounds, and the stimulant as described above or untreated) were fixed, in sequence, by use of 4% paraformaldehyde and 2.5% glutaraldehyde, respectively for 10 min, washed with PBS, then reacted with osmium tetroxide (OsO4) for 30 min; the cells were thoroughly washed with distilled water, then incubated with tannic acid for 30 min. […] Repeated the 100% ethanol dehydration step 3 times. The specimens were then dried with a mixture of CO2 and ethanol supercritical condition using Critical Point Dryer (CPD) (LEICAME CPD 300). The dried specimens were subsequently fixed on an alumina platform, and sputted with gold ions (ion sputter, JEOL JFC-1100E, operated at 1-2 mA for 60 sec) before subjecting to observation under Field Emission Scanning Electron Microscope (FE-SEM).
as §1

The subject of assay [6] is LPS-primed d-THP-1 cells. As to the kind of experiment: Nigericin-induced ASC speck formation (fluorescent microscopy). The settings on record: rebastinib 1 μM or glibenclamide 50 μM, 30 min, nigericin 5 μM 30 min, anti-ASC staining. The class given is cell-based, Human. The procedure:
d-THP-1 cells (treated with LPS, the tested compound, and the stimulant as described above or untreated) were fixed by 4% paraformaldehyde, washed with PBS (3 times), treated with Triton-X-100 (0.1%) for 10 min, washed with PBS (3 times), added 5% BSA for 1 hr, then washed with PBS (3 times) before the primary antibody (anti-ASC) was added. The primary anti-ASC antibody labeled cells were incubated at 4° C. overnight, then was labeled with the secondary antibody at RT for 1 hr, washed with PBS (3 times), added Hoechst 33342, washed with PBS (3 times), added ProLong™ Gold antifade reagent, then photographed using Fluorescent Microscope (IX81 Olympus, with Lumen 200 Fluorescence Illumination System). A hallmark of inflammasome activation is the ASC speck, a micrometre-sized structure formed by the inflammasome adaptor protein ASC (apoptosis-associated speck-like protein containing a CARD), which consists of a pyrin domain (PYD) and a caspase recruitment domain (CARD). In this example, the effect of the present compound on nigericin-induced formation of ASC speck in LPS-primed d-THP-1 cells was observed using fluorescence microscope, and results are illustrated in FIG. 8.

The test system of assay [7] is LPS-primed d-THP-1 cells. The assay can be described thus: MSU-induced IL-1β secretion in LPS-primed d-THP-1 cells (ELISA). The assay is classed as cell-based, Human. Conditions: rebastinib 0.003-1 μM, 30 min pre-incubation, MSU 100 μg/ml 4 hr. The procedure:
as §2, §3, §4, §5

Assay [8] concerns LPS-primed d-THP-1 cells. The assay can be described thus: Nigericin-induced IL-18 secretion in LPS-primed d-THP-1 cells (ELISA). The class given is cell-based, Human. Conditions: rebastinib 0.01-1 μM, 30 min pre-incubation, nigericin 5 μM 30 min. The procedure:
as §2, §3, §4, §5

Assay [9] concerns LPS-induced ALI in mice. The assay can be described thus: Animal model of LPS-induced acute lung injury (ALI). The class given is in vivo, mice (C57BL/6). The settings on record: rebastinib 10 mg/kg i.v. 1 hr before intra-tracheal LPS 2 mg/kg, lungs collected 5 hr later. The procedure: as §6
ALI was induced by intra-tracheal spray of 2 mg/kg LPS in 7-8 weeks old C57BL/6 mice. Mice were fasted overnight and then intravenously injected with 50 ul of rebastinib (10 mg/kg) or an equal volume of solvent (vehicle). After 1 hr, mice were instilled with an intra-tracheal spray of 2 mg/kg LPS (dissolved in 40 μl 0.9% saline) or 0.9% saline under anesthesia. 5 hr later, mice were sacrificed and the lungs were collected. The lungs were fixed in 10% formalin for tissue section. The lung sections were stained with hematoxylin and eosin (H&E).
In this example, animal model of ALI was used to investigate the effect of the present compound on ALI. Mice were intravenously injected with 50 ul of rebastinib (10 mg/kg) or an equal volume of solvent (vehicle). After 1 hr, mice were instilled with an intra-tracheal spray of 2 mg/kg LPS (dissolved in 40 μl 0.9% saline) or 0.9% saline under anesthesia. […]

Where [10] appears, read: rebastinib 5 or 10 mg/kg i.v., LPS/D-GalN i.p. 5 hr.

Data on two compounds can be found in patent publication US12023329B2, “Methods for the treatment of diseases associated with activation of inflammasomes” (Chang Gung University, priority 2020, dated 2024).

In the case of “4-[4-[(5-tert-butyl-2-quinolin-6-ylpyrazol-3-yl)-carbamoylamino]-3-fluorophenoxy]-N-methylpyridine-2-carboxamide [rebastinib]”, the “nigericin-induced pyroptotic LDH release” value in assay [1] was “inhibited”; in [1] (listed as present compound) it was “inhibitory effect”. In addition, the entries for the “imiquimod-induced IL-1β secretion” value in assay [2] and in [2] (listed as present compound) were “inhibited” and “suppressed”, respectively. The “acute liver failure: liver bleeding and inflammation (gross liver morphology)” value in assay [3] (5 hr) was “attenuated”; in [3] (5 hr, listed as present compound) it was “significant attenuation”. Further, in assay [3] (rebastinib 5 or 10 mg/kg i.v. 1 hr before LPS/D-GalN i.p., 5 hr), the liver tissue weight result is on record as “decreases”. The “serum ALT level” value in [3] (setting [10]) is listed as “decreased significantly”. In [3] (setting [10]), the “serum AST level” value is recorded as “decreased significantly”. The “serum CRE level” value in assay [3] (setting [10]) is “decreased significantly”. Besides, in [3] (setting [10]), the “serum LDH level” value was “decreased significantly”. Besides, in assay [3] (rebastinib 5 or 10 mg/kg i.v., LPS/D-GalN i.p. 5 hr, clinical chemistry analyzer), the “serum biochemical parameters (AST, ALT, BUN, CRE, LDH)” value is on record as “attenuated”. Further, the entries for the “nigericin-induced IL-1β secretion” value in assay [4] and in assay [4] (listed as present compound) were “inhibited” and “significantly reduced”, respectively. Further, the “nigericin-induced pyroptotic cell death (swelling, bubbles, lysis)” value is given as “inhibited” in assay [5] and “significantly reduced” in [5] (listed as present compound). Moreover, the “nigericin-induced ASC speck formation” value in [6] was “inhibited”; in assay [6] (listed as present compound) it was “greatly reduced”. Further, the “MSU-induced IL-1β secretion” value in [7] was “inhibited”; in assay [7] (listed as present compound), “suppressed”. In addition, the “nigericin-induced IL-18 secretion” value in assay [8] is “inhibited”; in [8] (listed as present compound), “significantly reduced”. The entries for the “LPS-induced lung morphology change and infiltration (H&E)” value in assay [9] and in assay [9] (listed as Rebastinib) were “significantly attenuated” and “attenuated”, respectively.

For the compound `COc1ccc(Cl)cc1C(=O)NCCc1ccc(S(=O)(=O)NC(=O)NC2CCCCC2)cc1` [glibenclamide], the “nigericin-induced pyroptotic cell death (swelling, bubbles, lysis)” value in assay [5] was “significantly reduced”. Besides, in assay [6], the “nigericin-induced ASC speck formation” value is recorded as “greatly reduced”.
